According to PMC7686313, “Phase 1 study of mTORC1/2 inhibitor sapanisertib (TAK-228) in advanced solid tumours, with an expansion phase in renal, endometrial or bladder cancer” (British Journal of Cancer, 2020):
Where two headings read alike, the source gives them in different places.

Columns and labels:
[1] = Plasma pharmacokinetics (LC-MS/MS); assay type: in vivo, human; settings: human, plasma, oral
Protocol: Peripheral blood was collected serially to quantify plasma levels of sapanisertib for PK analysis via validated liquid chromatography tandem mass spectrometry with an assay range of 1–1000 ng/mL (MicroConstants, San Diego, CA), during both dose-escalation and expansion phases. Blood samples were collected before each dose and 0.5, 1, 2, 4, 8 and 24 h after dosing on cycle 1, day 1 and cycle 2, day 1, in the dose-escalation phase. In the expansion phase, samples were collected predose and 2, 4 and 6 h postdose on cycle 1, day 1, and then predose and 2 h postdose on day 8, 15 or 22 of cycle 1.

bladder cancer = test: Tumour response according to RECIST v1.1, expansion phase, bladder cancer; assay type: in vivo, human; settings: expansion Bladder cancer (n = 13)
Source text: (§1) Patients could be considered for enrolment in one of three disease-specific cohorts: (1) advanced or recurrent endometrial adenocarcinoma with disease progression following ≥1 prior chemotherapy regimen; (2) advanced/metastatic urothelial cancer (carcinoma of the bladder, ureter and/or renal pelvis), progressive after ≥1 prior therapy in the metastatic/unresectable setting; (3) advanced RCC after failure of ≥1 prior antivascular endothelial growth factor therapy with no prior TORC1 inhibitor therapy, or progressed on treatment with TORC1 inhibitor therapy.

[2] = tested on: refractory clear-cell RCC; set-up: method as in earlier work; settings: single-agent 30 mg QW; cited from earlier work
endometrial cancer = test: Tumour response according to RECIST v1.1, expansion phase, endometrial cancer; assay type: in vivo, human; settings: expansion Endometrial cancer (n = 18)
Source text: as §1

With `CC(C)n1nc(-c2ccc3oc(N)nc3c2)c2c(N)ncnc21` [Sapanisertib] as the compound, how does the AUC(0-t) ([1]; 10 mg, cycle 1, day 1, 10 mg, read-out: AUC0–last [%CV]) read?
Its AUC(0-t) is 153 ng·h/mL.

And the Tmax ([1]; 10 mg, cycle 1, day 1, 10 mg, read-out: Tmax, median)?
Its Tmax is 2.8 h.

And the half-life ([1]; 10 mg, cycle 1, day 1, 10 mg, read-out: t½ (converted))?
The half-life was 6.4 h.

What about the Cmax ([1]; 10 mg, cycle 2, day 1, QDx5dQW 10 mg) of the same compound?
The Cmax was 57 ng/mL.

And the AUC(0-t) ([1]; 10 mg, cycle 2, day 1, QDx5dQW 10 mg, read-out: AUC0–24h [%CV])?
The AUC(0-t) was 366 ng·h/mL.

What about the half-life ([1]; 10 mg, cycle 2, day 1, QDx5dQW 10 mg, read-out: t½ (converted)) of the same compound?
The half-life was 5.7 h.

What about the Tmax ([1]; 10 mg, cycle 2, day 1, QW 10 mg, read-out: Tmax, median) of the same compound?
The Tmax was 2.9 h.

What about the Cmax ([1]; 12 mg, cycle 1, day 1, 12 mg) of the same compound?
Its Cmax is 99.5 ng/mL.

And the AUC(0-t) ([1]; 12 mg, cycle 1, day 1, 12 mg, read-out: AUC0–24h [%CV])?
Its AUC(0-t) is 730 ng·h/mL.

What about the half-life ([1]; 12 mg, cycle 1, day 1, 12 mg, read-out: t½ (converted)) of the same compound?
The half-life was 7.4 h.

And the Cmax ([1]; 12 mg, cycle 2, day 1, QDx3dQW 12 mg)?
The Cmax was 113 ng/mL.

And the AUC(0-t) ([1]; 12 mg, cycle 2, day 1, QDx3dQW 12 mg, read-out: AUC0–24h [%CV])?
The AUC(0-t) was 707 ng·h/mL.

And the Tmax ([1]; 12 mg, cycle 2, day 1, QDx3dQW 12 mg, read-out: Tmax, median)?
Its Tmax is 3.7 h.

What about the half-life ([1]; 12 mg, cycle 2, day 1, QDx3dQW 12 mg, read-out: t½ (converted)) of the same compound?
The half-life was 4.9 h.

And the Cmax ([1]; 13 mg, cycle 1, day 1, 13 mg)?
Its Cmax is 93.6 ng/mL.

What about the AUC(0-t) ([1]; 13 mg, cycle 1, day 1, 13 mg, read-out: AUC0–24h [%CV]) of the same compound?
The AUC(0-t) was 953 ng·h/mL.

And the Tmax ([1]; 13 mg, cycle 1, day 1, 13 mg, read-out: Tmax, median)?
The Tmax was 2.1 h.

And the half-life ([1]; 13 mg, cycle 1, day 1, 13 mg, read-out: t½ (converted))?
The half-life was 8.7 h.

What about the Cmax ([1]; 15 mg, cycle 1, day 1, 15 mg) of the same compound?
Its Cmax is 56.7 ng/mL.

And the AUC(0-t) ([1]; 15 mg, cycle 1, day 1, 15 mg, read-out: AUC0–24h [%CV])?
The AUC(0-t) was 518 ng·h/mL.

And the half-life ([1]; 15 mg, cycle 1, day 1, 15 mg, read-out: t½ (converted))?
The half-life was 9.4 h.

What about the Cmax ([1]; 15 mg, cycle 2, day 1, QW 15 mg) of the same compound?
Its Cmax is 64.9 ng/mL.

And the AUC(0-t) ([1]; 15 mg, cycle 2, day 1, QW 15 mg, read-out: AUC0–24h [%CV])?
Its AUC(0-t) is 604 ng·h/mL.

What about the Cmax ([1]; 16 mg, cycle 1, day 1, 16 mg) of the same compound?
The Cmax was 66.7 ng/mL.

What about the AUC(0-t) ([1]; 16 mg, cycle 1, day 1, 16 mg, read-out: AUC0–24h [%CV]) of the same compound?
Its AUC(0-t) is 689 ng·h/mL.

What about the Tmax ([1]; 16 mg, cycle 1, day 1, 16 mg, read-out: Tmax, median) of the same compound?
The Tmax was 2.1 h.

And the half-life ([1]; 16 mg, cycle 1, day 1, 16 mg, read-out: t½ (converted))?
The half-life was 7 h.

And the Cmax ([1]; 16 mg, cycle 2, day 1, QDx3dQW 16 mg)?
The Cmax was 92.1 ng/mL.

And the AUC(0-t) ([1]; 16 mg, cycle 2, day 1, QDx3dQW 16 mg, read-out: AUC0–24h [%CV])?
Its AUC(0-t) is 744 ng·h/mL.

And the Tmax ([1]; 16 mg, cycle 2, day 1, QDx3dQW 16 mg, read-out: Tmax, median)?
The Tmax was 2.1 h.

What about the Cmax ([1]; 20 mg, cycle 1, day 1, 20 mg) of the same compound?
Its Cmax is 154 ng/mL.

What about the AUC(0-t) ([1]; 20 mg, cycle 1, day 1, 20 mg, read-out: AUC0–24h [%CV]) of the same compound?
Its AUC(0-t) is 1260 ng·h/mL.

What about the Tmax ([1]; 20 mg, cycle 1, day 1, 20 mg, read-out: Tmax, median) of the same compound?
The Tmax was 2.1 h.

What about the half-life ([1]; 20 mg, cycle 1, day 1, 20 mg, read-out: t½ (converted)) of the same compound?
The half-life was 6.5 h.

And the Tmax ([1]; 20 mg, cycle 2, day 1, QW 20 mg, read-out: Tmax, median)?
The Tmax was 4 h.

What about the Cmax ([1]; 30 mg, cycle 1, day 1, 30 mg) of the same compound?
The Cmax was 162 ng/mL.

And the AUC(0-t) ([1]; 30 mg, cycle 1, day 1, 30 mg, read-out: AUC0–24h [%CV])?
The AUC(0-t) was 1080 ng·h/mL.

What about the half-life ([1]; 30 mg, cycle 1, day 1, 30 mg, read-out: t½ (converted)) of the same compound?
Its half-life is 5.9 h.

What about the Cmax ([1]; 30 mg, cycle 2, day 1, QW 30 mg) of the same compound?
Its Cmax is 133 ng/mL.

What about the AUC(0-t) ([1]; 30 mg, cycle 2, day 1, QW 30 mg, read-out: AUC0–24h [%CV]) of the same compound?
The AUC(0-t) was 1120 ng·h/mL.

What about the Tmax ([1]; 30 mg, cycle 2, day 1, QW 30 mg, read-out: Tmax, median) of the same compound?
Its Tmax is 4 h.

What about the half-life ([1]; 30 mg, cycle 2, day 1, QW 30 mg, read-out: t½ (converted)) of the same compound?
The half-life was 5.7 h.

What about the Cmax ([1]; 40 mg, cycle 1, day 1, 40 mg) of the same compound?
The Cmax was 172 ng/mL.

And the AUC(0-t) ([1]; 40 mg, cycle 1, day 1, 40 mg, read-out: AUC0–24h [%CV])?
The AUC(0-t) was 1640 ng·h/mL.

And the Tmax ([1]; 40 mg, cycle 1, day 1, 40 mg, read-out: Tmax, median)?
Its Tmax is 2.4 h.

What about the half-life ([1]; 40 mg, cycle 1, day 1, 40 mg, read-out: t½ (converted)) of the same compound?
Its half-life is 7.6 h.

What about the Cmax ([1]; 40 mg, cycle 2, day 1, QW 40 mg) of the same compound?
The Cmax was 232 ng/mL.

What about the AUC(0-t) ([1]; 40 mg, cycle 2, day 1, QW 40 mg, read-out: AUC0–24h [%CV]) of the same compound?
The AUC(0-t) was 2220 ng·h/mL.

What about the half-life ([1]; 40 mg, cycle 2, day 1, QW 40 mg, read-out: t½ (converted)) of the same compound?
The half-life was 6.4 h.

And the Tmax ([1]; range across all doses, read-out: Median Tmax)?
The Tmax was 1 to 2.8 h.

What about the half-life ([1]; range, 2–40 mg dose range, read-out: Mean plasma half-life) of the same compound?
The half-life was 5.9 to 9.4 h.

And the “Best overall response CR” value (bladder cancer)?
Its value is 0 n (%).

And the “Best overall response PD” value (bladder cancer)?
Its value is 8 (62) n (%).

And the “Best overall response PR” value (bladder cancer)?
Its value is 0 n (%).

And the “Best overall response SD < 6 months” value (bladder cancer)?
Its value is 4 (31) n (%).

What about the “Best overall response SD ≥ 6 months” value (bladder cancer) of the same compound?
Its value is 1 (8) n (%).

And the “CBR (CR + PR + SD ≥ 6 months)” value (bladder cancer)?
The value was 1 (8) n (%).

What about the “ORR (CR + PR)” value (bladder cancer) of the same compound?
Its value is 0 n (%).

What about the Responses [2] of the same compound?
Its Responses is “no responses”.

And the “Best overall response CR” value (endometrial cancer)?
Its value is 0 n (%).

What about the “Best overall response PD” value (endometrial cancer) of the same compound?
Its value is 8 (44) n (%).

What about the “Best overall response PR” value (endometrial cancer) of the same compound?
Its value is 1 (6) n (%).

And the “Best overall response SD < 6 months” value (endometrial cancer)?
The value was 8 (44) n (%).

And the “Best overall response SD ≥ 6 months” value (endometrial cancer)?
The value was 0 n (%).

What about the “CBR (CR + PR + SD ≥ 6 months)” value (endometrial cancer) of the same compound?
The value was 1 (6) n (%).

What about the “ORR (CR + PR)” value (endometrial cancer) of the same compound?
The value was 1 (6) n (%).
